Laboratory results taken from ChEMBL document CHEMBL1133893, “Design and synthesis of a highly selective EP4-receptor agonist. Part 1: 3,7-dithiaPG derivatives with high selectivity” (Bioorg Med Chem Lett, 2001).

Columns and labels:
[1] = target: T1, Prostaglandin E2 receptor EP4 subtype (Mus musculus, UniProt P32240); experiment: Evaluated for its competitive binding affinity towards mouse Prostanoid EP4 receptor in CHO cells expressing prostanoid receptor; format: cell-based
Prostacyclin receptor = Prostacyclin receptor (Homo sapiens, UniProt P43119); experiment: Evaluated for its competitive binding affinity towards human Prostanoid IP receptor in CHO cells; format: cell-based
[2] = target: T2, Prostaglandin E2 receptor EP3 subtype (Mus musculus, UniProt P30557); experiment: Evaluated for its competitive binding affinity towards mouse Prostanoid EP3 receptor in CHO cells expressing prostanoid receptor; format: cell-based
T2 sequence (P30557 whole entry): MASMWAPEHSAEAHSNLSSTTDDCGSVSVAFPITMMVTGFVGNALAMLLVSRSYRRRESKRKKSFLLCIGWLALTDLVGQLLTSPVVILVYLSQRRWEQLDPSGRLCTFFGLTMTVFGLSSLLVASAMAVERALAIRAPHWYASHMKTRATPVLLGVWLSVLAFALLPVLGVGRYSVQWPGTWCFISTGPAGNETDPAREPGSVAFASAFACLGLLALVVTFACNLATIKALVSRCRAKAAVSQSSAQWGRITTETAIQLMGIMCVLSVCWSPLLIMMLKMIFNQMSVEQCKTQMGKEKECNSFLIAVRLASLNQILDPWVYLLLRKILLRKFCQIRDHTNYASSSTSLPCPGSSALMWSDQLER

[3] = target: T3, Prostaglandin E2 receptor EP1 subtype (Mus musculus, UniProt P35375); experiment: Evaluated for its competitive binding affinity towards mouse Prostanoid EP1 receptor in CHO cells expressing prostanoid receptor; format: cell-based
T3 sequence (P35375 whole entry): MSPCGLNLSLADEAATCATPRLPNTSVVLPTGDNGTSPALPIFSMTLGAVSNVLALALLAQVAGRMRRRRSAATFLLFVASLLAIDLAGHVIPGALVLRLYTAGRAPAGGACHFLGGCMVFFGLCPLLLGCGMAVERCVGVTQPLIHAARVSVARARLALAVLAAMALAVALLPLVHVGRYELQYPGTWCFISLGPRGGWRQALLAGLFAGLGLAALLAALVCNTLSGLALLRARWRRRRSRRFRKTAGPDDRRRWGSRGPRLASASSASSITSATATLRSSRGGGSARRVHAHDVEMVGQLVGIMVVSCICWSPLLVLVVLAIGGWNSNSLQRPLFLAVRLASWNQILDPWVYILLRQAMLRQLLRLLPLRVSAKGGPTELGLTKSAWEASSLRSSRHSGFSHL

[4] = target: T1, Prostaglandin E2 receptor EP4 subtype; experiment: Effective concentration which increases intracellular c-AMP production in mouse Prostanoid EP4 receptor; format: functional, cell-based
[5] = target: Prostaglandin E2 receptor EP2 subtype (Mus musculus, UniProt Q62053); experiment: Evaluated for its competitive binding affinity towards mouse Prostanoid EP2 receptor in CHO cells expressing prostanoid receptor; format: cell-based
[6] = Selectivity ratio (Prostanoid EP3 receptor/Prostanoid EP4 receptor) was determined

Sequence of Prostacyclin receptor (P43119 whole entry): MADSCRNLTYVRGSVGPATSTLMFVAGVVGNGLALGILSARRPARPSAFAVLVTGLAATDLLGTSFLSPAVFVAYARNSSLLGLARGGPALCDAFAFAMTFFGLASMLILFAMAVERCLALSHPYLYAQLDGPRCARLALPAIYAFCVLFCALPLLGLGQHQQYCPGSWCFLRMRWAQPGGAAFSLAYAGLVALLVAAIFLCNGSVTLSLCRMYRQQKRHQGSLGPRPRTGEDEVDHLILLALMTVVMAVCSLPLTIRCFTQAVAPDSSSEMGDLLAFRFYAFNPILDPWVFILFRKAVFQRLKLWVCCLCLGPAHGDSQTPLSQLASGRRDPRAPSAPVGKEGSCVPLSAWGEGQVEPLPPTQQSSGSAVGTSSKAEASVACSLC
T1 sequence (P32240 whole entry): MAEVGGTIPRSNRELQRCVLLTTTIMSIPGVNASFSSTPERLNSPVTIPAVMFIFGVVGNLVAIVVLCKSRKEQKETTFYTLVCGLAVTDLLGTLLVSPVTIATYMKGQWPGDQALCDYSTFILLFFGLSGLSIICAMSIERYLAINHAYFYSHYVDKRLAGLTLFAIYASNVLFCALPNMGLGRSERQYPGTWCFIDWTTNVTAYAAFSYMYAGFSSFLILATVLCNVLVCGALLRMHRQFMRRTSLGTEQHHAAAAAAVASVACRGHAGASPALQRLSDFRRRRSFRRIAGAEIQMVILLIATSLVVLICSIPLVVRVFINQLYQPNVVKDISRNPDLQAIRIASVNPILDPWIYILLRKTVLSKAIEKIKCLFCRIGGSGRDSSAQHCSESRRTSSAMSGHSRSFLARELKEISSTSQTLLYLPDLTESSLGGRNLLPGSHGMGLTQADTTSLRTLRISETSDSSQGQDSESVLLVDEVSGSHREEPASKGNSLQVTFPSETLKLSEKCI
Sequence of Prostaglandin E2 receptor EP2 subtype (Q62053 whole entry): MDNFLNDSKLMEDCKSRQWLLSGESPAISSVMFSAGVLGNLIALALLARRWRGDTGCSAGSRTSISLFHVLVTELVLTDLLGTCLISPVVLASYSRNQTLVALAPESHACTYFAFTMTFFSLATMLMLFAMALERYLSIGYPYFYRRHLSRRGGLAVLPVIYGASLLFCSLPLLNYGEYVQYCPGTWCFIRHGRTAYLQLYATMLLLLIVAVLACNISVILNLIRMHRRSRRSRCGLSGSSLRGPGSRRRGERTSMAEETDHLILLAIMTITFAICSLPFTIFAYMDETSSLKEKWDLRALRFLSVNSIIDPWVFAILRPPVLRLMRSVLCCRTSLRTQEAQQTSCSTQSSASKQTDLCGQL

Row | SMILES | Ki [1] [nM] | Ki (Prostacyclin receptor) [nM] | Ki [2] [nM] | Ki [3] [nM] | EC50 [4] [nM] | Ki [5] [nM] | Selectivity ratio [6]
1 | COCCc1cccc(C[C@H](O)/C=C/[C@H]2[C@H](O)CC(=O)[C@@H]2SCCCSCC(=O)O)c1 | 8.5 | > 10000 | 3000 | > 10000 | 12 | 3100 | –
2 | COc1ccc(C[C@H](O)/C=C/[C@H]2[C@H](O)CC(=O)[C@@H]2SCCCSCC(=O)O)cc1 | 7.1 | > 10000 | 220 | 3100 | 32 | 1500 | 50
3 | CCCCC[C@H](O)/C=C/[C@H]1[C@H](O)CC(=O)[C@@H]1CSCCSCC(=O)O | 28 | > 10000 | 3.5 | 50 | 7800 | 1000 | –
4 | CCOCc1cccc(C[C@H](O)/C=C/[C@H]2[C@H](O)CC(=O)[C@@H]2SCCCSCC(=O)O)c1 | 9.4 | > 10000 | 4500 | > 10000 | 2.5 | > 10000 | 450
5 | CCCC[C@H](C)C[C@H](O)/C=C/[C@H]1[C@H](O)CC(=O)[C@@H]1SCCCCCC(=O)O | 0.4 | 3.3 | 6.1 | 11 | – | 14 | –
6 | Cc1ccccc1C[C@H](O)/C=C/[C@H]1[C@H](O)CC(=O)[C@@H]1SCCCSCC(=O)O | 22 | > 10000 | 140 | > 10000 | 420 | 2500 | –
7 | CCCCC[C@H](O)/C=C/[C@H]1[C@H](O)CC(=O)[C@@H]1SCCCCCC(=O)O | 0.7 | 870 | 4.5 | 120 | 3.7 | 100 | –
8 | CCCOCc1cccc(C[C@H](O)/C=C/[C@H]2[C@H](O)CC(=O)[C@@H]2SCCCSCC(=O)O)c1 | 5.2 | > 10000 | 3000 | > 10000 | 10 | 7700 | –
9 | CCCCC[C@H](O)/C=C/[C@H]1[C@H](O)CC(=O)[C@@H]1SCCSCCC(=O)O | 3.2 | > 10000 | 4.4 | 610 | 170 | 1200 | –
10 | COc1cccc(C[C@H](O)/C=C/[C@H]2[C@H](O)CC(=O)[C@@H]2SCCCSCC(=O)O)c1 | 9.9 | > 10000 | 510 | > 10000 | 37 | > 10000 | 50
11 | COCc1cccc(C[C@H](O)/C=C/[C@H]2[C@H](O)CC(=O)[C@@H]2SCCCSCC(=O)O)c1 | 3.1 | > 10000 | 1200 | > 10000 | 3.1 | 2100 | 120
12 | Cc1cccc(C[C@H](O)/C=C/[C@H]2[C@H](O)CC(=O)[C@@H]2SCCCSCC(=O)O)c1 | 1.9 | > 10000 | 100 | > 10000 | 2.8 | 760 | –
13 | CCCCC[C@H](O)/C=C/[C@H]1[C@H](O)CC(=O)[C@@H]1SCCCSCC(=O)O | 0.7 | > 10000 | 220 | 610 | 4.3 | 280 | –
14 | COc1ccccc1C[C@H](O)/C=C/[C@H]1[C@H](O)CC(=O)[C@@H]1SCCCSCC(=O)O | 32 | > 10000 | 1100 | > 10000 | 580 | 2600 | 50
15 | COCCCc1cccc(C[C@H](O)/C=C/[C@H]2[C@H](O)CC(=O)[C@@H]2SCCCSCC(=O)O)c1 | 100 | > 10000 | > 10000 | > 10000 | 44 | > 10000 | –
16 | Cc1ccc(C[C@H](O)/C=C/[C@H]2[C@H](O)CC(=O)[C@@H]2SCCCSCC(=O)O)cc1 | 7.3 | > 10000 | 72 | > 10000 | 270 | 1200 | –
17 | O=C(O)CSCCCS[C@H]1C(=O)C[C@@H](O)[C@@H]1/C=C/[C@@H](O)Cc1ccccc1 | 7 | > 10000 | 130 | 2600 | 34 | 3900 | –
18 | CCCCC[C@H](O)/C=C/[C@H]1[C@H](O)CC(=O)[C@@H]1SCCCOCC(=O)O | 2.3 | 510 | 11 | 1200 | 7.7 | 150 | –
19 | CCCCC[C@H](O)/C=C/[C@H]1[C@H](O)CC(=O)[C@@H]1CCCCCCC(=O)O [ALPROSTADIL] | – | – | – | 22 | 2.5 | 41 | –
20 | CSCc1cccc(C[C@H](O)/C=C/[C@H]2[C@H](O)CC(=O)[C@@H]2SCCCSCC(=O)O)c1 | 6 | > 10000 | 430 | > 10000 | 4.8 | 5300 | 70
